Among the data in US11820766B2, “Monoacylglycerol lipase modulators” (Janssen Pharmaceutica NV, priority 2018, dated 2023) are IC50 values, retold here.

The structures appear in SMILES notation.

This assay addresses T1, human MGL from HeLa cells (Homo sapiens, UniProt Q99685).
T1 construct: combining endogenously expressed MGL from HeLa cells with test compounds; endogenous in cells; host or cells: HeLa cells / cell homogenates
T1 sequence (Q99685 1-303): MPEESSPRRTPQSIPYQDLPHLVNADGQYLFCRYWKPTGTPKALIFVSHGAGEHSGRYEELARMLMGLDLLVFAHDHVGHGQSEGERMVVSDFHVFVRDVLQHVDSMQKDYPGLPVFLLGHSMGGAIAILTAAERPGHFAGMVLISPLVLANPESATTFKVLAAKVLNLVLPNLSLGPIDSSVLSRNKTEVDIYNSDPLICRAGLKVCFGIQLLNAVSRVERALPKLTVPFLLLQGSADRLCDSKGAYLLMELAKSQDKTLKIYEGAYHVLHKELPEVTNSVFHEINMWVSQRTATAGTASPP
As to the kind of experiment: In vitro MGL activity assay: [glycerol-1,3-3H]-oleyl glycerol cleavage by MGL from HeLa cells. The assay is classed as biochemical. As to conditions: 300 nM [Glycerol-1,3-3H]-oleyl glycerol, one hour. The text has this:
MGL is the predominant hydrolase in HeLa cells/cell homogenates.
Regarding `COc1ccc(-c2c3c(nn2C)[C@H](C)N(C(=O)c2ccc4ncccc4c2)CC3)cn1` [Example 525, [(7S)-3-(6-Methoxy-3-pyridyl)-2,7-dimethyl-5,7-dihydro-4H-pyrazolo[3,4-c]pyridin-6-yl]-(6-quinolyl)methanone], 0.602 µM corresponded to half-maximal inhibition (IC50). On to `COc1cc(-c2c3c(nn2C)[C@H](C)N(C(=O)c2ccc4ncccc4c2)CC3)ccn1` [Example 526, [(7S)-3-(2-Methoxy-4-pyridyl)-2,7-dimethyl-5,7-dihydro-4H-pyrazolo[3,4-c]pyridin-6-yl]-(6-quinolyl)methanone], for which the IC50 – broadly, the concentration that gives 50% inhibition – amounted to 0.502 µM. Turning to `C[C@H]1c2nn(C)c(-c3ccc(OC(F)F)nc3)c2CCN1C(=O)c1ccc2ncccc2c1` [Example 527, [(7S)-3-[6-(Difluoromethoxy)-3-pyridyl]-2,7-dimethyl-5,7-dihydro-4H-pyrazolo[3,4-c]pyridin-6-yl]-(6-quinolyl)methanone], the IC50 amounted to 0.278 µM. With `C[C@H]1c2nn(C)c(-c3cncc(OC(F)F)c3)c2CCN1C(=O)c1ccc2ncccc2c1` [Example 528, [(7S)-3-[5-(Difluoromethoxy)-3-pyridyl]-2,7-dimethyl-5,7-dihydro-4H-pyrazolo[3,4-c]pyridin-6-yl]-(6-quinolyl)methanone], the half-inhibitory concentration (IC50) amounted to 0.397 µM. In the case of `COc1ncc(-c2c3c(nn2C)[C@H](C)N(C(=O)c2ccc4ncccc4c2)CC3)cc1C` [Example 529, [(7S)-3-(6-Methoxy-5-methyl-3-pyridyl)-2,7-dimethyl-5,7-dihydro-4H-pyrazolo[3,4-c]pyridin-6-yl]-(6-quinolyl)methanone] it was 0.32 µM; in that of `COc1ncc(-c2c3c(nn2C)[C@H](C)N(C(=O)c2ccc4ncccc4c2)CC3)cc1C(F)(F)F` [Example 530, [(7S)-3-[6-Methoxy-5-(trifluoromethyl)-3-pyridyl]-2,7-dimethyl-5,7-dihydro-4H-pyrazolo[3,4-c]pyridin-6-yl]-(6-quinolyl)methanone], 0.13 µM; in that of `C[C@H]1c2nn(C)c(-c3cccc4cc[nH]c34)c2CCN1C(=O)c1ccc2ncccc2c1` [Example 531, [(7S)-3-(1H-Indol-7-yl)-2,7-dimethyl-5,7-dihydro-4H-pyrazolo[3,4-c]pyridin-6-yl]-(6-quinolyl)methanone], 0.0229 µM. `C[C@H]1c2nn(C)c(-c3ccc4ccoc4c3)c2CCN1C(=O)c1ccc2ncccc2c1` [Example 532, [(7S)-3-(Benzofuran-6-yl)-2,7-dimethyl-5,7-dihydro-4H-pyrazolo[3,4-c]pyridin-6-yl]-(6-quinolyl)methanone] displayed an IC50 of 0.065 µM. `C[C@H]1c2nn(C)c(-c3ccc4occc4c3)c2CCN1C(=O)c1ccc2ncccc2c1` [Example 533, [(7S)-3-(Benzofuran-5-yl)-2,7-dimethyl-5,7-dihydro-4H-pyrazolo[3,4-c]pyridin-6-yl]-(6-quinolyl)methanone] gave an IC50 of 0.0174 µM. As for `C[C@H]1c2nn(C)c(-c3cccc4ccoc34)c2CCN1C(=O)c1ccc2ncccc2c1` [Example 534, [(7S)-3-(Benzofuran-7-yl)-2,7-dimethyl-5,7-dihydro-4H-pyrazolo[3,4-c]pyridin-6-yl]-(6-quinolyl)methanone], the concentration for half-maximal inhibition (IC50) worked out at 0.0251 µM. On to `C[C@H]1c2nn(C)c(-c3cccc4occc34)c2CCN1C(=O)c1ccc2ncccc2c1` [Example 535, [(7S)-3-(Benzofuran-4-yl)-2,7-dimethyl-5,7-dihydro-4H-pyrazolo[3,4-c]pyridin-6-yl]-(6-quinolyl)methanone], for which half-maximal inhibition (IC50) was put at 0.0181 µM. Take `C[C@H]1c2nn(C)c(-c3cc(F)cc4ccoc34)c2CCN1C(=O)c1ccc2ncccc2c1` [Example 536, [(7S)-3-(5-Fluorobenzofuran-7-yl)-2,7-dimethyl-5,7-dihydro-4H-pyrazolo[3,4-c]pyridin-6-yl]-(6-quinolyl)methanone]: it took 0.02 µM to reach half-maximal inhibition (IC50). For `C[C@H]1c2nn(C)c(-c3cccc4scnc34)c2CCN1C(=O)c1ccc2ncccc2c1` [Example 537, [(7S)-3-(1,3-Benzothiazol-4-yl)-2,7-dimethyl-5,7-dihydro-4H-pyrazolo[3,4-c]pyridin-6-yl]-(6-quinolyl)methanone], the IC50 stood at 0.033 µM. In the case of `C[C@H]1c2nn(C)c(-c3cccc4nonc34)c2CCN1C(=O)c1ccc2ncccc2c1` [Example 538, [(7S)-3-(2,1,3-Benzoxadiazol-4-yl)-2,7-dimethyl-5,7-dihydro-4H-pyrazolo[3,4-c]pyridin-6-yl]-(6-quinolyl)methanone], the IC50 was 0.0726 µM. Regarding `C[C@H]1c2nn(C)c(-c3cccc4c3OCC4)c2CCN1C(=O)c1ccc2ncccc2c1` [Example 539, [(7S)-3-(2,3-Dihydrobenzofuran-7-yl)-2,7-dimethyl-5,7-dihydro-4H-pyrazolo[3,4-c]pyridin-6-yl]-(6-quinolyl)methanone], 0.0552 µM corresponded to half-maximal inhibition (IC50). Next, `C[C@H]1c2nn(C)c(-c3ccc4c(c3)OCO4)c2CCN1C(=O)c1ccc2ncccc2c1` [Example 540, [(7S)-3-(1,3-Benzodioxol-5-yl)-2,7-dimethyl-5,7-dihydro-4H-pyrazolo[3,4-c]pyridin-6-yl]-(6-quinolyl)methanone]: 0.133 µM; `C[C@H]1c2nn(C)c(-c3cccc4c3OCO4)c2CCN1C(=O)c1ccc2ncccc2c1` [Example 541, [(7S)-3-(1,3-Benzodioxol-4-yl)-2,7-dimethyl-5,7-dihydro-4H-pyrazolo[3,4-c]pyridin-6-yl]-(6-quinolyl)methanone]: 0.00217 µM. The molecule `C[C@H]1c2nn(C)c(-c3cccc4c3OC(F)(F)O4)c2CCN1C(=O)c1ccc2ncccc2c1` [Example 542, [(7S)-3-(2,2-Difluoro-1,3-benzodioxol-4-yl)-2,7-dimethyl-5,7-dihydro-4H-pyrazolo[3,4-c]pyridin-6-yl]-(6-quinolyl)methanone] showed a half-inhibitory concentration (IC50) of 0.0812 µM. Molecule `C[C@H]1c2nn(C)c(-c3cc(F)c(F)c(F)c3)c2CCN1C(=O)c1cccc2cnccc12` [Example 543, [(7S)-2,7-Dimethyl-3-(3,4,5-trifluorophenyl)-5,7-dihydro-4H-pyrazolo[3,4-c]pyridin-6-yl]-(5-isoquinolyl)methanone] had an IC50 of 0.00492 µM. The molecule `C[C@H]1c2nn(C)c(-c3cc(F)c(F)c(F)c3)c2CCN1C(=O)c1ccc2cnccc2c1` [Example 544, [(7S)-2,7-Dimethyl-3-(3,4,5-trifluorophenyl)-5,7-dihydro-4H-pyrazolo[3,4-c]pyridin-6-yl]-(6-isoquinolyl)methanone] gave an IC50 of 0.0102 µM. As for `C[C@H]1c2nn(C)c(-c3cc(F)c(F)c(F)c3)c2CCN1C(=O)c1cnc2cccc(F)c2c1` [Example 545, [(7S)-2,7-Dimethyl-3-(3,4,5-trifluorophenyl)-5,7-dihydro-4H-pyrazolo[3,4-c]pyridin-6-yl]-(5-fluoro-3-quinolyl)methanone], the IC50 is 0.0117 µM. The molecule `C[C@H]1c2nn(C)c(-c3cc(F)c(F)c(F)c3)c2CCN1C(=O)c1cncc2c(F)cccc12` [Example 546, [(7S)-2,7-Dimethyl-3-(3,4,5-trifluorophenyl)-5,7-dihydro-4H-pyrazolo[3,4-c]pyridin-6-yl]-(8-fluoro-4-isoquinolyl)methanone] gave an IC50 of 0.00506 µM. Consider `C[C@H]1c2nn(C)c(-c3cc(F)c(F)c(F)c3)c2CCN1C(=O)c1ccc2nccc(Br)c2c1` [Example 547, (4-Bromo-6-quinolyl)-[(7S)-2,7-dimethyl-3-(3,4,5-trifluorophenyl)-5,7-dihydro-4H-pyrazolo[3,4-c]pyridin-6-yl]methanone], for which half-maximal inhibition (IC50) required 0.00562 µM.

`Cc1ccc2cc(C(=O)N3CCc4c(nn(C)c4-c4cc(F)c(F)c(F)c4)[C@@H]3C)ccc2n1` [Example 548, [(7S)-2,7-Dimethyl-3-(3,4,5-trifluorophenyl)-5,7-dihydro-4H-pyrazolo[3,4-c]pyridin-6-yl]-(2-methyl-6-quinolyl)methanone] registered a half-inhibitory concentration (IC50) of 0.0162 µM. In the case of `Cc1ccnc2ccc(C(=O)N3CCc4c(nn(C)c4-c4cc(F)c(F)c(F)c4)[C@@H]3C)cc12` [Example 549, [(7S)-2,7-Dimethyl-3-(3,4,5-trifluorophenyl)-5,7-dihydro-4H-pyrazolo[3,4-c]pyridin-6-yl]-(4-methyl-6-quinolyl)methanone] it was 0.00199 µM; in that of `COc1cccc2c(C(=O)N3CCc4c(nn(C)c4-c4cc(F)c(F)c(F)c4)[C@@H]3C)ccnc12` [Example 550, [(7S)-2,7-Dimethyl-3-(3,4,5-trifluorophenyl)-5,7-dihydro-4H-pyrazolo[3,4-c]pyridin-6-yl]-(8-methoxy-4-quinolyl)methanone], 0.0483 µM. Regarding `C[C@H]1c2nn(C)c(-c3cc(F)c(F)c(F)c3)c2CCN1C(=O)c1cnn2c1CCC2` [Example 551, 5,6-Dihydro-4H-pyrrolo[1,2-b]pyrazol-3-yl-[(7S)-2,7-dimethyl-3-(3,4,5-trifluorophenyl)-5,7-dihydro-4H-pyrazolo[3,4-c]pyridin-6-yl]methanone], the IC50 is 0.122 µM. The molecule `C[C@H]1c2nn(C)c(-c3cc(F)c(F)c(F)c3)c2CCN1C(=O)c1cnn2c1CCCC2` [Example 552, [(7S)-2,7-Dimethyl-3-(3,4,5-trifluorophenyl)-5,7-dihydro-4H-pyrazolo[3,4-c]pyridin-6-yl]-(4,5,6,7-tetrahydropyrazolo[1,5-a]pyridin-3-yl)methanone] had an IC50 of 0.0404 µM.

In turn, `C[C@H]1c2nn(C)c(-c3cc(F)c(F)c(F)c3)c2CCN1C(=O)c1cc2n(n1)CCCO2` [Example 553, 6,7-Dihydro-5H-pyrazolo[5,1-b][1,3]oxazin-2-yl-[(7S)-2,7-dimethyl-3-(3,4,5-trifluorophenyl)-5,7-dihydro-4H-pyrazolo[3,4-c]pyridin-6-yl]methanone] had an IC50 of 0.285 µM.
